Each block holds one compound with its values, some of them ahead of it.
Key:
[1] = biological target: T1, Leucine aminopeptidase (Plasmodium falciparum 3D7, UniProt Q8IL11); test: Inhibition of Plasmodium falciparum LAP
T1 sequence (Q8IL11 whole entry): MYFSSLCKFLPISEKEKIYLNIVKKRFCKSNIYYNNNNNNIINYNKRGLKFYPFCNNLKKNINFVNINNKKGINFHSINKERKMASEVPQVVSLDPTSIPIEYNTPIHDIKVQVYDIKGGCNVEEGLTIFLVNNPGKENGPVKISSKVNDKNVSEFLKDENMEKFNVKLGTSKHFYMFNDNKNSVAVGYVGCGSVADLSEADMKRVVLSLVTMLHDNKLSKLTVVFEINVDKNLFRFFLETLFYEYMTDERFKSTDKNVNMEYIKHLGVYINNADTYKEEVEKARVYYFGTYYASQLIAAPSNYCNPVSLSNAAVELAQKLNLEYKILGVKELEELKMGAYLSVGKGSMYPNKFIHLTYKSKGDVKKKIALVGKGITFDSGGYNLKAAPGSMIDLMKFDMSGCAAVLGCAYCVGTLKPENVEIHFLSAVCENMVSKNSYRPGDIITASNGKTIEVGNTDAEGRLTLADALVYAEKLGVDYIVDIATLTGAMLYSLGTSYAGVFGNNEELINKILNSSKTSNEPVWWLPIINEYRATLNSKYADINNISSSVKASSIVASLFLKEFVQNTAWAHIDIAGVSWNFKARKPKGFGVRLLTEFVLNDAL

[2] = Inhibition of Neisseria meningitidis APN
[3] = biological target: T2, Macrophage metalloelastase (Homo sapiens, UniProt P39900); test: Inhibition of human MMP12
T2 sequence (P39900 whole entry): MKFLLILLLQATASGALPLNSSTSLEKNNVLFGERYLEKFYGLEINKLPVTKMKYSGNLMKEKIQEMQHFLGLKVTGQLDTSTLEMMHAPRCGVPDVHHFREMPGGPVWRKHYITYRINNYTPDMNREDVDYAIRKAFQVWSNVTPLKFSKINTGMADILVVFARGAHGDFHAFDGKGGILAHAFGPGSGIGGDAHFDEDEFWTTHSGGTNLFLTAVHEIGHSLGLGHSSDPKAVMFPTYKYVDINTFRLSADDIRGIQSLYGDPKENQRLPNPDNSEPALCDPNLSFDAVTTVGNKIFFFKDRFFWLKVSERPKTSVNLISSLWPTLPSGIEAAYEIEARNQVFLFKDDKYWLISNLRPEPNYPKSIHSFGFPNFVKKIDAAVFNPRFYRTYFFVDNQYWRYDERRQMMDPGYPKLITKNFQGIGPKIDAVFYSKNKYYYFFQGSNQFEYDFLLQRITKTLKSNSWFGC

[4] = biological target: 72 kDa type IV collagenase (Homo sapiens, UniProt P08253); test: Inhibition of human MMP2 by photoaffinity probe based assay
72 kDa type IV collagenase, sequence (P08253 whole entry): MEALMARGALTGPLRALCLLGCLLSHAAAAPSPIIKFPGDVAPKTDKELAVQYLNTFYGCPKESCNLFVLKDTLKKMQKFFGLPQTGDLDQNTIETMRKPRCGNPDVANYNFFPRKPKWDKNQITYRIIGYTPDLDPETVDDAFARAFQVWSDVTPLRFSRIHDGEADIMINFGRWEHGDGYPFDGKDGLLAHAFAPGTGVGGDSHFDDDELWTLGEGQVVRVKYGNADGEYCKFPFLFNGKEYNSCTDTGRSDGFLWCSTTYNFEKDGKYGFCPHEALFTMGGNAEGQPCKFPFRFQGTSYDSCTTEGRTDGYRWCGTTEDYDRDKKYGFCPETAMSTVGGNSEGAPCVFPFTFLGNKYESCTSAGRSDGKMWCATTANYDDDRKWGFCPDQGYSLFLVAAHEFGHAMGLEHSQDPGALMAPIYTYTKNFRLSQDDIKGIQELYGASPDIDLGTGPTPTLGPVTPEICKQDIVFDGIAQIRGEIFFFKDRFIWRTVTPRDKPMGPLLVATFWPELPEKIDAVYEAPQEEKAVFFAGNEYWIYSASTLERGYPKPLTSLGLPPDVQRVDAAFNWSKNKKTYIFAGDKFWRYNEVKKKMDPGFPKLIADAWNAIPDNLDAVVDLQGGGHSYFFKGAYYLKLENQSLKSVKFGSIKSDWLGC

[5] = biological target: Collagenase 3 (Homo sapiens, UniProt P45452); test: Inhibition of human MMP13 by photoaffinity probe based assay
[6] = biological target: T2, Macrophage metalloelastase; test: Inhibition of human MMP12 by photoaffinity probe based assay
[7] = biological target: Matrix metalloproteinase-9 (Homo sapiens, UniProt P14780); test: Inhibition of human MMP9 by photoaffinity probe based assay
Matrix metalloproteinase-9, sequence (P14780 whole entry): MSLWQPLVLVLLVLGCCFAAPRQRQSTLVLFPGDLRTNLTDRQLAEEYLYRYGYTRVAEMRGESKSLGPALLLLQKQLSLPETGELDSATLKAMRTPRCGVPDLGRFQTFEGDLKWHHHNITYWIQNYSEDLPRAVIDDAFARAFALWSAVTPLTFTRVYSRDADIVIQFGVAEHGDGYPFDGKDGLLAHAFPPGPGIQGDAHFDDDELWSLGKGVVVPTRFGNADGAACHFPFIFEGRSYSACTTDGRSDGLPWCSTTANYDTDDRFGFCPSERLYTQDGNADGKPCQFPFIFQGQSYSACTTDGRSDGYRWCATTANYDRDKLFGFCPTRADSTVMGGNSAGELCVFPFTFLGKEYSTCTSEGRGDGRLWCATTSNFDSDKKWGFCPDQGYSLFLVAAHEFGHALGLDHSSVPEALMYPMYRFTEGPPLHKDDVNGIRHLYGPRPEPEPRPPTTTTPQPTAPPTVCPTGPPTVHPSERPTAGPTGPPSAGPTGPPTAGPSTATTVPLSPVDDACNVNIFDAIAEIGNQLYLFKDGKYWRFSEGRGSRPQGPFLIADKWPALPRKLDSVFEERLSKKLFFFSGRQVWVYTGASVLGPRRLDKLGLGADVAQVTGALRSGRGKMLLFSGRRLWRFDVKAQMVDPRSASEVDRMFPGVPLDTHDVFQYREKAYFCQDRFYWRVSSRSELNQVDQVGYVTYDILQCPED

[8] = biological target: Neutrophil collagenase (Homo sapiens, UniProt P22894); test: Inhibition of human MMP8 by photoaffinity probe based assay
Neutrophil collagenase, sequence (P22894 whole entry): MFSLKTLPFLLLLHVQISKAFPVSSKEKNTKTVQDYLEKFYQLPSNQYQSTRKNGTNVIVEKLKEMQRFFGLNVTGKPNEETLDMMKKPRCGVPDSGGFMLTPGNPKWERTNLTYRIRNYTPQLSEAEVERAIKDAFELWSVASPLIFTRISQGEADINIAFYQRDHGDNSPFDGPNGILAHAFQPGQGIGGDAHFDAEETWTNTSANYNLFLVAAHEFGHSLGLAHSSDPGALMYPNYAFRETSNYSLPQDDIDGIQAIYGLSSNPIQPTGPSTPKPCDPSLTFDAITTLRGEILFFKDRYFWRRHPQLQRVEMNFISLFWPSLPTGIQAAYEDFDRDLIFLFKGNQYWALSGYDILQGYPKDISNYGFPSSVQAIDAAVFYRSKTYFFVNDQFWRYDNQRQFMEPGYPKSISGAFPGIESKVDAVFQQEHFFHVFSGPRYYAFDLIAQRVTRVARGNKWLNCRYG

[9] = biological target: T3, Leukotriene A-4 hydrolase (Homo sapiens, UniProt P09960); test: Inhibition of human recombinant LTA4H by L-(4-benzoyl)phenylalanyl-beta-naphthylamide fluorigenic substrate by fluorescence based assay
T3 sequence (P09960 whole entry): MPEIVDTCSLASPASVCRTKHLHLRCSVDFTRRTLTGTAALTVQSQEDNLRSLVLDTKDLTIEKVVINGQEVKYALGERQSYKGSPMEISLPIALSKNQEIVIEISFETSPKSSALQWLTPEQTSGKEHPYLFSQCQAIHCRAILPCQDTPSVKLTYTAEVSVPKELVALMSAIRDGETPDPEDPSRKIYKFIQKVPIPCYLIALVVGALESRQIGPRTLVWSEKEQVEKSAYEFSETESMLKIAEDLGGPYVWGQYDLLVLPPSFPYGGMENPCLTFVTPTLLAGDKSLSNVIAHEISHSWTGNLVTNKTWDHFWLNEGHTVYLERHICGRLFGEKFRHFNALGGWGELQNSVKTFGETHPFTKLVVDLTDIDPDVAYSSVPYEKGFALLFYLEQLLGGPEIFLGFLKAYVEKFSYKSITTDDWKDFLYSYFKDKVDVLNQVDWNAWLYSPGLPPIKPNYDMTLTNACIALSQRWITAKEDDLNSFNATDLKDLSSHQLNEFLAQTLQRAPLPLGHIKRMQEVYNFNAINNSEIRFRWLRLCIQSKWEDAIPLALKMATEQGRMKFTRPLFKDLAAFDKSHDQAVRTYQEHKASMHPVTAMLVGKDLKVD

[10] = Inhibition of Helicobacter pylori Csd4
[11] = Inhibition of Plasmodium falciparum APN

SMILES: NC(CCc1ccccc1)P(=O)(O)CC(Cc1ccccc1)C(=O)O (stereo not given)
Ki [1]: 13 nM | Ki [2]: 302 nM

SMILES: CC[N+]1=C(/C=C/C=C/C=C2/N(CCCCCC(=O)NCCCOCCOCCOCCCNC(=O)[C@H](CCC(=O)O)NC(=O)[C@H](C)NC(=O)[C@H](Cc3cc(-c4ccc(-c5cccc(Cl)c5)cc4)no3)CP(=O)(O)c3ccc(Br)cc3)c3ccc4c(S(=O)(=O)O)cc(S(=O)(=O)O)cc4c3C2(C)C)C(C)(C)c2c1ccc1c(S(=O)(=O)[O-])cc(S(=O)(=O)O)cc21
Ki [3]: 0.9 nM

SMILES: [3H]CC([3H])C(=O)NCCCOCCOCCOCCCNC(=O)[C@H](CO)NC(=O)[C@H](CC)NC(=O)[C@H](Cc1cc(-c2ccc(C3(C(F)(F)F)N=N3)cc2)no1)CP(=O)(O)c1ccccc1 (stereo not given in full)
Ki [4]: 0.5 nM | Ki [5]: 1.6 nM | Ki [6]: 1 nM | Ki [7]: 2.6 nM | Ki [8]: 0.6 nM

SMILES: C[C@H](NC(=O)[C@H](Cc1cc(-c2ccc(-c3cccc(Cl)c3)cc2)no1)CP(=O)(O)c1ccc(Br)cc1)C(=O)N[C@@H](CCC(=O)O)C(N)=O
Ki [3]: 0.26 nM

SMILES: NC(CCc1ccccc1)P(=O)(O)CC(Cc1ccc(O)cc1)C(=O)O (stereo not given)
Ki [1]: 10 nM | Ki [2]: 54 nM | Ki [11]: 232 nM

Results, then the compound that gave them:

Ki [9]: 5.3 nM
SMILES: CC(=O)N1CCC(CP(=O)(O)[C@H](C)N)(C(=O)N[C@@H](C)C(=O)O)CC1

Ki [9]: 4.6 nM
SMILES: C[C@H](NC(=O)C1(CP(=O)(O)[C@H](C)N)CCCC1)C(=O)O

Ki [10]: 1500 nM
SMILES: CC(=O)N[C@H](CCP(=O)(O)CC(CCC[C@@H](N)C(=O)O)C(=O)O)C(=O)O (stereo not given in full)

Reference: ChEMBL document CHEMBL4316613, “Recent developments in the synthesis and applications of phosphinic peptide analogs” (Bioorg Med Chem Lett, 2019)
